Reference: PMC6855212, “Antibacterial activity of synthetic 1,3‐bis(aryloxy)propan‐2‐amines against Gram‐positive bacteria” (MicrobiologyOpen, 2019)
In brackets after ≈: the same amount, converted by molar mass. Several values for one entry are separate records, joined by “and”; a condition that tells them apart may be missing. Identical values can stand only once. Like-named read-outs stand apart in the source and are kept apart here. Each block holds one compound with its values, some of them ahead of it.

Tests used:
[1] = system: Enterococcus faecalis ATCC 29213; test: MIC, broth microdilution; assay type: cell-based
Experimental: (§1) The antibacterial activity of the compounds was evaluated using the broth microdilution method in 96‐well microplates according to the Clinical and Laboratory Standards Institute protocol (CLSI, 2017). First, synthetic compounds were diluted in Mueller Hinton broth (MHB; Oxoid, Thermo Scientific, UK) to concentrations ranging from 20 to 2.5 μg/ml. The same volume of a bacterial suspension containing 10^5 CFU/ml was added to each of the previous solutions, resulting in final compound concentrations from 10 to 1.25 μg/ml. […] All conditions were tested in triplicate and the results shown are representative of three independent assays.

[2] = system: MRSA Strain 5749; test: MIC, broth microdilution; assay type: cell-based; settings: Staphylococcus aureus, read-out: MIC MRSA Strain 5749
Experimental: as §1

[3] = system: MRSA Strain 5912; test: MIC, broth microdilution; assay type: cell-based; settings: Staphylococcus aureus, read-out: MIC MRSA Strain 5912
Experimental: as §1

[4] = system: MRSA Strain 6100; test: MIC, broth microdilution; assay type: cell-based; settings: Staphylococcus aureus, read-out: MIC MRSA Strain 6100
Experimental: as §1

[5] = system: MRSA Strain 6154; test: MIC, broth microdilution; assay type: cell-based; settings: Staphylococcus aureus, read-out: MIC MRSA Strain 6154
Experimental: as §1

[6] = system: MRSA Strain 6613; test: MIC, broth microdilution; assay type: cell-based; settings: Staphylococcus aureus, read-out: MIC MRSA Strain 6613
Experimental: as §1

[7] = system: Staphylococcus aureus ATCC 29212; test: MIC, broth microdilution; assay type: cell-based; settings: for MIC: Staphylococcus aureus, ATCC29212
Experimental: as §1

[8] = system: Streptococcus pyogenes ATCC 19615; test: MIC, broth microdilution; assay type: cell-based; settings: for MIC: Streptococcus pyogenes, ATCC19615
Experimental: as §1

[9] = system: MRSA Strain 5749; test: MBC, plating of wells without growth; assay type: cell-based; settings: Staphylococcus aureus
Experimental: (§2) After incubation at 35°C for 24 hr, the colonies were counted and the percentage of inhibition was calculated. MBC is defined as the lowest compound's concentration that inhibits at least 99.9% of the bacterial cell count compared to nontreated viability control (Clinical and Laboratory Standards Institute, 1999).

[10] = system: MRSA Strain 5912; test: MBC, plating of wells without growth; assay type: cell-based; settings: Staphylococcus aureus
Experimental: as §2

[11] = system: MRSA Strain 6100; test: MBC, plating of wells without growth; assay type: cell-based; settings: Staphylococcus aureus
Experimental: as §2

[12] = system: MRSA Strain 6154; test: MBC, plating of wells without growth; assay type: cell-based; settings: Staphylococcus aureus
Experimental: as §2

[13] = system: MRSA Strain 6613; test: MBC, plating of wells without growth; assay type: cell-based; settings: Staphylococcus aureus
Experimental: as §2

[14] = system: S. aureus ATCC 29212; test: MBC, plating of wells without growth; assay type: cell-based; settings: Staphylococcus aureus, ATCC29212; at least 99.9% inhibition of cell count
Experimental: as §2

[15] = system: S. pyogenes ATCC 19615; test: MBC, plating of wells without growth; assay type: cell-based; settings: Streptococcus pyogenes, ATCC19615; at least 99.9% inhibition of cell count
Experimental: as §2

[16] = Cytotoxicity, MTT reduction assay; assay type: cell-based; settings: African green monkey, 48 hr
Experimental: The cytotoxicity of active compounds to mammalian cells was assessed using the MTT reduction assay (Mosmann, 1983). Vero and BSC‐40 cells were seeded in 96‐well plates (8 × 10^4 cells per well) and incubated at 37°C and 5% CO2 atmosphere. After 24 hr of incubation, 200 μL of fresh medium containing a serial dilution of compounds (10–1.25 μg/ml) were added to the plates. After 48 hr of incubation in the same conditions, 100 μL of MTT solution in MEM or DMEM (5 mg/ml) was added to each well and incubated for 3 hr at 37°C and 5% CO2 atmosphere. The medium was removed and 100 μL of DMSO was used to solubilize formazan crystals. Absorbance at 570 nm of each well was read using a spectrophotometer (VersaMax, Molecular Devices).

[17] = system: MRSA strains; test: MIC, broth microdilution, MRSA strains taken together; assay type: cell-based; settings: Staphylococcus aureus; over the six MRSA strains (CPD18: four out of six); read-out: MIC against MRSA strains
Experimental: as §1

[18] = system: Gram‐positive bacteria (E. faecalis, S. aureus and S. pyogenes); test: MIC, broth microdilution, Gram‐positive bacteria taken together; assay type: cell-based; settings: Staphylococcus aureus; over different bacterial strains, including MRSA where stated; read-out: MIC against Gram‐positive bacteria, summary
Experimental: as §1

[19] = system: MRSA ATCC 43300; test: MIC, broth microdilution; assay type: cell-based; settings: Staphylococcus aureus, read-out: MIC MRSA ATCC 43300
Experimental: as §1

[20] = system: S. aureus; set-up: method as in CLSI, 2017; settings: antimicrobials in clinical use; ref CLSI, 2017; cited from earlier work
[21] = system: E. faecalis; set-up: method as in CLSI, 2017; settings: antimicrobials in clinical use; ref CLSI, 2017; cited from earlier work
[22] = system: MRSA; set-up: method as in Baltch, Ritz, Bopp, Michelsen, & Smith, 2007; settings: antimicrobials used in the clinic; ref Baltch, Ritz, Bopp, Michelsen, & Smith, 2007; cited from earlier work
[23] = 24 hr, 35°C, read-out: MIC Staphylococcus aureus ATCC 29212
[24] = 24 hr, 35°C, read-out: MIC Streptococcus pyogenes ATCC 19615

MIC ([2]; clinical strain): 26.3 µM (≈ 9.04 µg/mL)
MIC ([3]; clinical strain): 13.2 µM (≈ 4.52 µg/mL)
MIC ([4]; clinical strain, — = no activity up to 10 μg/ml): 26.3 µM (≈ 9.04 µg/mL)
MIC ([5]; clinical strain): 26.3 µM (≈ 9.04 µg/mL)
MIC ([6]; clinical strain): 26.3 µM (≈ 9.04 µg/mL)
MIC [7, 23]: 26.3 µM
MIC ([7]; read-out: MIC against S. aureus): 10 µg/mL
MIC [8, 24]: 26.3 µM
MIC ([8]; read-out: MIC against S. pyogenes): 10 µg/mL
MIC [18]: 10 µg/mL and 26.3 µM
Compound: NC(COc1ccc2ccccc2c1)COc1ccc2ccccc2c1 [CPD21]
Antibacterial activity in initial screening, E. faecalis ([1]; concentration of 10 μg/ml): not observed
Antibacterial activity in initial screening, S. aureus ([7]; concentration of 10 μg/ml): showed activity
Antibacterial activity in initial screening, S. pyogenes ([8]; concentration of 10 μg/ml): showed activity
MBC [9]: 26.3 µM (≈ 9.04 µg/mL)
MBC [10]: 13.2 µM (≈ 4.52 µg/mL)
MBC [11]: 26.3 µM (≈ 9.04 µg/mL)
MBC [12]: 26.3 µM (≈ 9.04 µg/mL)
MBC [13]: 26.3 µM (≈ 9.04 µg/mL)
MBC [14]: 26.3 µM (≈ 9.04 µg/mL)
MBC [15]: 26.3 µM (≈ 9.04 µg/mL)
CC50 at 48 h ([16]; BSC-40 cells, BSC‐40, MTT, read-out: CC50): 5.06 ± 1.13 µg/mL
CC50 at 48 h ([16]; BSC-40 cells, BSC‐40, MTT, read-out: CC50 ± SD): 13.3 ± 2.97 µM
CC50 at 48 h ([16]; Vero cells, MTT, read-out: CC50 ± SD): 11.3 ± 2.58 µM
MIC [17]: 5 µg/mL to 10 µg/mL and 13.2 µM to 26.3 µM

melting point: 103.4 to 105.7 °C
Compound: OC(COc1ccc(Cl)c(Cl)c1)COc1ccc(Cl)c(Cl)c1 [CPD29, 1,3‐Bis(3,4‐dichlorophenoxy)propan‐2‐ol]

melting point: 83.7 to 84.4 °C
Compound: CS(=O)(=O)OC(COc1ccc(Cl)c(Cl)c1)COc1ccc(Cl)c(Cl)c1 [CPD30, 1,3‐Bis(3,4‐dichlorophenoxy)propan‐2‐yl methanesulfonate]

melting point: 95.6 to 96.3 °C
Compound: [N-]=[N+]=NC(COc1ccc(Cl)c(Cl)c1)COc1ccc(Cl)c(Cl)c1 [CPD31, 1,3‐Bis(3,4‐dichlorophenoxy)propan‐2‐yl azide]

melting point: 62.6 to 64.8 °C
Compound: Clc1ccc(OCC(COc2ccc(Cl)cc2)N2CCOCC2)cc1 [CPD34, 4‐(1,3‐Bis(4‐chlorophenoxy)propan‐2‐yl)morpholine]

melting point: 145.3 to 147.2 °C
Compound: Cc1ccc(S(=O)(=O)OC(COc2ccc(Cl)cc2)COc2ccc(Cl)cc2)cc1 [CPD39, 1,3‐bis(4‐chlorophenoxy)propan‐2‐yl 4‐methylbenzenesulfonate]

MIC ([1]; Enterococcus faecalis, ATCC29213, 24 hr, 35°C, — = no activity up to 10 μg/ml, read-out: MIC Enterococcus faecalis ATCC 29213): 5.98 µM (≈ 2 µg/mL)
MIC [7, 23]: 0.06 µM
MIC [8, 24]: 0.24 µM
Compound: CC1(C)S[C@@H]2[C@H](NC(=O)Cc3ccccc3)C(=O)N2[C@H]1C(=O)O [Penicillin G, reference compound]

Compound: CN[C@H](CC(C)C)C(=O)N[C@H]1C(=O)N[C@@H](CC(N)=O)C(=O)N[C@H]2C(=O)N[C@H]3C(=O)N[C@H](C(=O)N[C@H](C(=O)O)c4cc(O)cc(O)c4-c4cc3ccc4O)[C@H](O)c3ccc(c(Cl)c3)Oc3cc2cc(c3O[C@@H]2O[C@H](CO)[C@@H](O)[C@H](O)[C@H]2O[C@H]2C[C@](C)(N)[C@H](O)[C@H](C)O2)Oc2ccc(cc2Cl)[C@H]1O [Vancomycin, reference compound]
MIC [19]: 1.38 µM (≈ 2 µg/mL)
MIC [2]: 1.38 µM (≈ 2 µg/mL)
MIC [3]: 1.38 µM (≈ 2 µg/mL)
MIC [4]: 1.38 µM (≈ 2 µg/mL)
MIC [5]: 1.38 µM (≈ 2 µg/mL)
MIC [6]: 1.38 µM (≈ 2 µg/mL)
MIC S. aureus [20]: 0.5 to 2 µg/mL
MIC E. faecalis [21]: 1 to 4 µg/mL
MIC MRSA [22]: 2 µg/mL (≈ 1.38 µM)

Compound: NCC[C@H](O)C(=O)N[C@@H]1C[C@H](N)[C@@H](O[C@H]2O[C@H](CN)[C@@H](O)[C@H](O)[C@H]2O)[C@H](O)[C@H]1O[C@H]1O[C@H](CO)[C@@H](O)[C@H](N)[C@H]1O [amikacin]
MIC S. aureus [20]: 1 to 4 µg/mL
MIC E. faecalis [21]: 64 to 256 µg/mL

Compound: CC1(C)S[C@@H]2[C@H](NC(=O)C(C(=O)O)c3ccccc3)C(=O)N2[C@H]1C(=O)O (stereo partly shown) [carbenicillin]
MIC S. aureus [20]: 2 to 8 µg/mL
MIC E. faecalis [21]: 16 to 64 µg/mL

Compound: CC(C)(O/N=C(\C(=O)N[C@@H]1C(=O)N2C(C(=O)[O-])=C(C[n+]3ccccc3)CS[C@H]12)c1csc(N)n1)C(=O)O [ceftazidime]
MIC S. aureus [20]: 4 to 16 µg/mL

Compound: O=C(N[C@H](CO)[C@H](O)c1ccc([N+](=O)[O-])cc1)C(Cl)Cl [chloramphenicol]
MIC S. aureus [20]: 2 to 16 µg/mL
MIC E. faecalis [21]: 4 to 16 µg/mL

Compound: CCCCCCCCCC(=O)N[C@@H](Cc1c[nH]c2ccccc12)C(=O)N[C@H](CC(N)=O)C(=O)N[C@@H](CC(=O)O)C(=O)N[C@@H]1C(=O)NCC(=O)N[C@@H](CCCN)C(=O)N[C@@H](CC(=O)O)C(=O)N[C@H](C)C(=O)N[C@@H](CC(=O)O)C(=O)NCC(=O)N[C@H](CO)C(=O)N[C@@H]([C@H](C)CC(=O)O)C(=O)N[C@@H](CC(=O)c2ccccc2N)C(=O)O[C@@H]1C [daptomycin]
MIC MRSA [22]: 0.5 µg/mL (≈ 0.309 µM)

Compound: CNC(C)C1CCC(N)C(OC2C(N)CC(N)C(OC3OCC(C)(O)C(NC)C3O)C2O)O1 (stereo not shown) [gentamicin]
MIC MRSA [22]: 128 µg/mL (≈ 268 µM)

Compound: NC[C@H]1O[C@H](O[C@H]2[C@H](O)[C@@H](O[C@H]3O[C@H](CO)[C@@H](O)[C@H](N)[C@H]3O)[C@H](N)C[C@@H]2N)[C@H](O)[C@@H](O)[C@@H]1O [kanamycin]
MIC S. aureus [20]: 1 to 4 µg/mL
MIC E. faecalis [21]: 16 to 64 µg/mL

Compound: CC(=O)NC[C@H]1CN(c2ccc(N3CCOCC3)c(F)c2)C(=O)O1 [linezolid]
MIC S. aureus [20]: 1 to 4 µg/mL
MIC E. faecalis [21]: 1 to 4 µg/mL

Compound: COc1cccc(OC)c1C(=O)N[C@@H]1C(=O)N2[C@@H]1SC(C)(C)[C@@H]2C(=O)O [methicillin]
MIC E. faecalis [21]: > 16 µg/mL

Compound: Cc1onc(-c2ccccc2)c1C(=O)N[C@@H]1C(=O)N2[C@@H]1SC(C)(C)[C@@H]2C(=O)O [oxacillin]
MIC MRSA [22]: 16 µg/mL (≈ 39.9 µM)

Compound: CCN1CCN(C(=O)N[C@@H](C(=O)N[C@@H]2C(=O)N3[C@@H]2SC(C)(C)[C@@H]3C(=O)O)c2ccccc2)C(=O)C1=O [piperacillin]
MIC S. aureus [20]: 1 to 4 µg/mL
MIC E. faecalis [21]: 1 to 4 µg/mL
